Results: patent US20050209278A1, “Piperidinyl- and piperazinyl-sulfonylmethyl hydroxamic acids and their use as protease inhibitors” (priority 2002, published 2005)
pIC50: −log10 of the molar value. Where a name gives a salt, the structure may show the parent alone.

Columns and labels:
MMP-14 = target: T1, MMP-14 (Homo sapiens, UniProt P50281); assay: In vitro MMP inhibition, IC50 determination (fluorogenic substrate I); assay type: biochemical; conditions: values in parenthesis; 4 μM substrate I; room temperature
T1 construct: The catalytic domain enzyme was expressed in E. coli inclusion bodies, solubilized in urea; made in house
Protocol: Several hydroxamic acids and salts thereof were analyzed in in vitro assays to determine their ability to inhibit the MMP cleavage of peptide substrates. […] and IC50 constants were calculated from the assayed hydroxamic acid-MMP interactions. Human recombinant MMP-1, MMP-2, MMP-9, MMP-13, and MMP-14 were used in this assay. All enzymes were prepared in Assignee's laboratories following usual laboratory procedures. Protocols for the preparation and use of these enzymes are available in the scientific literature. See, e.g., Enzyme Nomenclature (Academic Press, San Diego, Calif., 1992) (and the citations therein). See also, Freije et al., “Molecular cloning and expression of collagenase-3, a novel human matrix metalloproteinase produced by breast carcinomas,” J Biol. Chem., 269(24), 16766-16773 (1994). The MMP-14 full length cDNA was provided by Dr. Gregory Goldberg of Washington University (St. Louis, Mo.). The catalytic domain enzyme was expressed in E. coli inclusion bodies, solubilized in urea, purified on a preparative […] reverse phase HPLC column, and then refolded in the presence of zinc acetate and purified for use. All MMPs were activated using 4-aminophenylmercuric acetate (“APMA”, Sigma Chemical, St. Louis, Mo.) or trypsin. MMP-9 also was activated using human recombinant MMP-3 (purified in Assignee's laboratory following standard cloning and purification techniques). […] Substrate (I) was purchased from Baychem (Redwood City, Calif.), and substrate II was prepared Assignee's laboratory. Substrate I was used in the IC50 determination assays, while substrate II was used in the Ki determination assays. In the absence of MMP inhibitory activity, either substrate is cleaved at the Gly-Leu peptide bond. […] The stock solutions of the assayed hydroxamic acids (or salts thereof) were prepared in 1% dimethyl sulfoxide (DMSO). […] The experiment controls contained the same amount of Buffer A/DMSO as the assayed sample, but contained no hydroxamic acid (or salt thereof). The assays from which the IC50 determinations were made were performed as follows. […] Louis, Mo.). The assayed hydroxamic acid samples were incubated in MicrofluorTM White Plates (Dynatech, Chantilly, Va.) and analyzed on a Perkin Elmer […] plate reader (Norwalk, Conn.). The excitation wavelength was 328 nm, and the emission wavelength-415 nm. […] As stated in the previous paragraph, samples containing varying concentrations of the same assayed hydroxamic acid were prepared. Inhibition was measured as a reduction in fluorescent intensity as a function of MMP inhibitor concentration. […] All values in Table 2 are given in nM units. The IC50 measurements are in parenthesis.

MMP-1 = target: T2, MMP-1 (Homo sapiens, UniProt P03956); assay: as above; assay type: biochemical; conditions: values in parenthesis; 4 μM substrate I; room temperature
T2 construct: made in house; host or cells: MMP-1-transfected HT-1080 cells (spent media)
T2 sequence (P03956 100-469): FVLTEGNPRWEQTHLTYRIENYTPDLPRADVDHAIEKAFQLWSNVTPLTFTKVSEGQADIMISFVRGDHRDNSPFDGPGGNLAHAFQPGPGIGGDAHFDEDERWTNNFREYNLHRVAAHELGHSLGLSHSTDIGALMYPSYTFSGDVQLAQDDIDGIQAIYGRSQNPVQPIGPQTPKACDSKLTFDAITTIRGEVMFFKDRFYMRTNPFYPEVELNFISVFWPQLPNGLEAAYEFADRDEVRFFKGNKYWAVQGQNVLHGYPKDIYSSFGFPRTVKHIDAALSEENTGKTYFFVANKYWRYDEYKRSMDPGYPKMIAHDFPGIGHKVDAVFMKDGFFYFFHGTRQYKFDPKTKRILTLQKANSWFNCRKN
Protocol: Several hydroxamic acids and salts thereof were analyzed in in vitro assays to determine their ability to inhibit the MMP cleavage of peptide substrates. […] and IC50 constants were calculated from the assayed hydroxamic acid-MMP interactions. Human recombinant MMP-1, MMP-2, MMP-9, MMP-13, and MMP-14 were used in this assay. All enzymes were prepared in Assignee's laboratories following usual laboratory procedures. Protocols for the preparation and use of these enzymes are available in the scientific literature. See, e.g., Enzyme Nomenclature (Academic Press, San Diego, Calif., 1992) (and the citations therein). See also, Freije et al., “Molecular cloning and expression of collagenase-3, a novel human matrix metalloproteinase produced by breast carcinomas,” J Biol. Chem., 269(24), 16766-16773 (1994). The MMP-1 proenzyme was purified from the spent media of MMP-1-transfected HT-1080 cells provided by Dr. Harold Welgus of Washington University (St. Louis, Mo.). The protein was purified on a zinc chelating column. All MMPs were activated using 4-aminophenylmercuric acetate (“APMA”, Sigma Chemical, St. Louis, Mo.) or trypsin. MMP-9 also was activated using human recombinant MMP-3 (purified in Assignee's laboratory following standard cloning and purification techniques). […] Substrate (I) was purchased from Baychem (Redwood City, Calif.), and substrate II was prepared Assignee's laboratory. Substrate I was used in the IC50 determination assays, while substrate II was used in the Ki determination assays. In the absence of MMP inhibitory activity, either substrate is cleaved at the Gly-Leu peptide bond. […] The stock solutions of the assayed hydroxamic acids (or salts thereof) were prepared in 1% dimethyl sulfoxide (DMSO). […] The experiment controls contained the same amount of Buffer A/DMSO as the assayed sample, but contained no hydroxamic acid (or salt thereof). The assays from which the IC50 determinations were made were performed as follows. […] Louis, Mo.). The assayed hydroxamic acid samples were incubated in MicrofluorTM White Plates (Dynatech, Chantilly, Va.) and analyzed on a Perkin Elmer […] plate reader (Norwalk, Conn.). The excitation wavelength was 328 nm, and the emission wavelength-415 nm. […] As stated in the previous paragraph, samples containing varying concentrations of the same assayed hydroxamic acid were prepared. Inhibition was measured as a reduction in fluorescent intensity as a function of MMP inhibitor concentration. […] All values in Table 2 are given in nM units. The IC50 measurements are in parenthesis.

Structure (SMILES) | pIC50 (MMP-14) | pIC50 (MMP-1)
CCCCc1ccc(N2CCN(S(=O)(=O)C3(C(=O)NO)CCN(CCOC)CC3)CC2)cc1 [Example 5, 4-{[4-(4-butylphenyl)piperazin-1-yl]sulfonyl}-N-hydroxy-1-(2-methoxyethyl)piperidine-4-carboxamide Dihydrochloride] | 5.34 | < 5.00
CCCCCc1ccc(N2CCN(S(=O)(=O)C3(C(=O)NO)CCN(CCOC)CC3)CC2)cc1 [Example 6, N-Hydroxy-1-(2-methoxyethyl)-4-{[4-(4-pentylphenyl)piperazin-1-yl]sulfonyl}piperidine-4-carboxamide Dihydrochloride] | < 5.00 | < 5.00
CCCCOc1ccc(N2CCN(S(=O)(=O)C3(C(=O)NO)CCN(CCOC)CC3)CC2)cc1F [Example 11, 4-[[4-(4-butoxy-3-fluorophenyl)-1-piperazinyl]sulfonyl]-N-hydroxy-1-(2-methoxyethyl)-4-piperidinecarboxamide, Dihydrochloride] | 5.15 | < 5.00
CCCCCc1ccc(C2CCN(S(=O)(=O)C3(C(=O)NO)CCN(CCOC)CC3)CC2)cc1 [Example 15, N-hydroxy-1-(2-methoxyethyl)-4-{[4-(4-pentylpheyl)piperidin-1-yl]sulfonyl}piperidine-4-carboxamide Hydrochloride] | 5.21 | < 5.00
O=C(NO)C1(S(=O)(=O)N2CCN(c3ccc(OCC4CC4)c(F)c3)CC2)CCN(C2CC2)CC1 [Example 10, 1-cyclopropyl-4-[[4-[4-(cyclopropylmethoxy)-3-fluorophenyl]-1-piperazinyl]sulfonyl]-N-hydroxy-4-piperidinecarboxamide, dihydrochloride] | 5.23 | < 5.00
